# Like-named read-outs stand apart in the source and are kept apart here.
# Tests used:
# Format in all cases: cell-based
# [1] = tested on: Trypanosoma brucei Lister 427 VSG221 with APOL1 G0 recombinant protein; experiment: APOL1 G0 trypanosome cell rescue assay (Example B5); settings: geometric mean of at least 2 assay runs, † = single assay run
# Summary of the method: (§1)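 Viability read by CellTiter-Glo luminescence after 20 h co-incubation (37° C, 5% CO2) of 250 trypanosomes/well in modified HMI-9 with test compound (duplicate 11-point, 2-fold dilutions, 0.4% DMSO) and APOL1 protein, […]. Protein: mature residues 28-398, E. coli inclusion-body refolded, tag cleaved, in DDM.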
# [2] = tested on: Trypanosoma brucei Lister 427 VSG221 with APOL1 G2 recombinant protein; experiment: APOL1 G2 trypanosome cell rescue assay (Example B5); settings: geometric mean of at least 2 assay runs, † = single assay run
# Summary of the method: as §1
# [3] = tested on: HEK293 clonal cell line overexpressing APOL1 G1; experiment: APOL1 G1 HEK293 cell rescue assay (Example B3); settings: geometric mean of at least 2 runs, † = single run, ¥ = concentration at 50% rescue estimated (no sigmoidal curve)
# Summary of the method: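 Rescue of cell death caused by APOL1 G1 overexpression was measured in a clonal HEK293 line. Compounds were tested in duplicate on one plate, and EC50s were geometric means across at least two runs on different days. Some values are estimated 50%-rescue concentrations where curve fitting failed.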
# [4] = tested on: Trypanosoma brucei Lister 427 VSG221 with APOL1 G1 recombinant protein; experiment: APOL1 G1 trypanosome cell rescue assay (Example B5); settings: geometric mean of at least 2 assay runs, † = single assay run
# Summary of the method: as §1
# [5] = Trypanosoma brucei, 20 h, read-out: APOL1 G0 Trypanosome Rescue EC50, Trypanosoma brucei Lister 427 VSG221 with APOL1 G0 recombinant protein, 20 hours, CellTiter-Glo
# [6] = Trypanosoma brucei, 20 h, read-out: APOL1 G2 Trypanosome Rescue EC50, Trypanosoma brucei Lister 427 VSG221 with APOL1 G2 recombinant protein, 20 hours, CellTiter-Glo
# [7] = Homo sapiens, HEK293, HEK293 clonal line overexpressing APOL1 G1
# [8] = Trypanosoma brucei, 20 h, read-out: APOL1 G1 Trypanosome Rescue EC50, Trypanosoma brucei Lister 427 VSG221 with APOL1 G1 recombinant protein, 20 hours, CellTiter-Glo
# [9] = read-out: APOL1 G0 Trypanosome Rescue EC50, Trypanosoma brucei Lister 427 VSG221 with APOL1 G0 recombinant protein, 20 hours, CellTiter-Glo
# [10] = read-out: APOL1 G2 Trypanosome Rescue EC50, Trypanosoma brucei Lister 427 VSG221 with APOL1 G2 recombinant protein, 20 hours, CellTiter-Glo
# [11] = HEK293 clonal line overexpressing APOL1 G1
# [12] = read-out: APOL1 G1 Trypanosome Rescue EC50, Trypanosoma brucei Lister 427 VSG221 with APOL1 G1 recombinant protein, 20 hours, CellTiter-Glo
Compound,"EC50 [1, 5]","EC50 [2, 6]","EC50 [3, 7]","EC50 [4, 8]","EC50 [1, 9]","EC50 [2, 10]","EC50 [3, 11]","EC50 [4, 12]"
"CS(=O)(=O)c1ccc(OCCN2CCC3(CC2)C(=O)Nc2c(C#N)cc(Cl)cc23)cc1 [Compound 9, 5-chloro-1′-[2-(4-methanesulfonylphenoxy)ethyl]-2-oxo-1,2-dihydrospiro[indole-3,4′-piperidine]-7-carbonitrile]",> 4 µM,1.32 µM,~11.5 µM,> 4 µM,,,,
"O=C1CCc2cc(OCCN3CCC4(CC3)C(=O)Nc3ccc(Cl)cc34)ccc2N1[C@H]1C[C@@H](O)C1 [Compound 114, 5-chloro-1′-[2-({2-oxo-1-[(cis)-3-hydroxycyclobutyl]-1,2,3,4-tetrahydroquinolin-6-yl}oxy)ethyl]-1,2-dihydrospiro[indole-3,4′-piperidin]-2-one]",0.108 µM,0.038 µM,0.128 µM,0.104 µM,,,,
"O=C1CCC2c3ccc(OCCN4CCC5(CC4)C(=O)Nc4ccc(Cl)cc45)cc3CCN12 (single isomer, unassigned) [Compound 123, (R) or (S)-5-chloro-1′-[2-({3-oxo-1H,2H,3H,5H,6H,10bH-pyrrolo[2,1-a]isoquinolin-8-yl}oxy)ethyl]-1,2-dihydrospiro[indole-3,4′-piperidin]-2-one]",,,,,0.178 µM,0.0769 µM,0.232 µM,0.258 µM
"CC(C)(c1ccc(OCCN2CCC3(CC2)C(=O)Nc2ccc(C#N)cc23)cn1)S(C)(=O)=O [Compound 191, 1′-(2-{[6-(2-methanesulfonylpropan-2-yl)pyridin-3-yl]oxy}ethyl)-2-oxo-1,2-dihydrospiro[indole-3,4′-piperidine]-5-carbonitrile]",0.251 µM,0.104 µM,0.283 µM,0.304 µM,,,,
"CN=S(C)(=O)c1ccc(OCCN2CCC3(CC2)C(=O)Nc2ccc(Cl)cc23)cc1 (centres unmarked) [Compound 147, 5-chloro-1′-(2-{4-[methyl(methylimino)oxo-λ^6-sulfanyl]phenoxy}ethyl)-1,2-dihydrospiro[indole-3,4′-piperidin]-2-one]",0.155 µM,0.0654 µM,0.183 µM,0.231 µM,,,,
"O=C1Nc2ccc(Cl)cc2C12CCN(CCOc1ccc3c(c1)CCNS3(=O)=O)CC2 [Compound 167, 6-(2-{5-chloro-2-oxo-1,2-dihydrospiro[indole-3,4′-piperidin]-1′-yl}ethoxy)-3,4-dihydro-2H-1λ^6,2-benzothiazine-1,1-dione]",0.0984 µM,0.035 µM,0.138 µM,0.148 µM,,,,
"CS(=O)(=O)c1ccc(OCCN2CCC3(CC2)C(=O)Nc2ccc(Cl)cc23)cc1OC(F)F [Compound 163, 5-chloro-1′-{2-[3-(difluoromethoxy)-4-methanesulfonylphenoxy]ethyl}-1,2-dihydrospiro[indole-3,4′-piperidin]-2-one]",0.0559 µM,0.0212 µM,0.113 µM,0.09 µM,,,,
"CN1c2ccc(OCCN3CCC4(CC3)C(=O)Nc3ccc(Cl)cc34)cc2CCS1(=O)=O [Compound 103, 6-(2-{5-chloro-2-oxo-1,2-dihydrospiro[indole-3,4′-piperidin]-1′-yl}ethoxy)-1-methyl-3,4-dihydro-1H-2λ^6,1-benzothiazine-2,2-dione]",0.113 µM,0.0437 µM,0.124 µM,0.17 µM,,,,
"CN=S(C)(=O)c1ccc(OCCN2CCC3(CC2)C(=O)Nc2ccc(Cl)cc23)cc1 (single isomer, unassigned) [Compound 149, (R) or (S)-5-chloro-1′-(2-{4-[methyl(methylimino)oxo-λ^6-sulfanyl]phenoxy}ethyl)-1,2-dihydrospiro[indole-3,4′-piperidin]-2-one]",,,,,0.117 µM,0.0518 µM,0.246 µM,0.174 µM
"CN(c1c(F)cc(OCCN2CCC3(CC2)C(=O)Nc2ccc(C#N)cc23)cc1F)S(C)(=O)=O [Compound 128, N-[4-(2-{5-cyano-2-oxo-1,2-dihydrospiro[indole-3,4′-piperidin]-1′-yl}ethoxy)-2,6-difluorophenyl]-N-methylmethanesulfonamide]",0.269 µM,0.133 µM,0.158 µM,0.383 µM,,,,
"Cc1cc(OCCN2CCC3(CC2)C(=O)Nc2ccc(Cl)cc23)ccc1S(C)(=O)=O [Compound 110, 5-chloro-1′-[2-(4-methanesulfonyl-3-methylphenoxy)ethyl]-1,2-dihydrospiro[indole-3,4′-piperidin]-2-one]",0.0714 µM,0.0261 µM,0.1 µM,0.0877 µM,,,,
"CN1CCc2cc(OCCN3CCC4(CC3)C(=O)Nc3ccc(Cl)cc34)ccc2S1(=O)=O [Compound 153, 6-(2-{5-chloro-2-oxo-1,2-dihydrospiro[indole-3,4′-piperidin]-1′-yl}ethoxy)-2-methyl-3,4-dihydro-2H-1λ^6,2-benzothiazine-1,1-dione]",0.0522 µM,0.0256 µM,0.0962 µM,0.0667 µM,,,,
"Cn1c(=O)oc2cc(OCCN3CCC4(CC3)C(=O)Nc3ccc(Cl)cc34)ccc21 [Compound 131, 5-chloro-1′-{2-[(3-methyl-2-oxo-2,3-dihydro-1,3-benzoxazol-6-yl)oxy]ethyl}-1,2-dihydrospiro[indole-3,4′-piperidin]-2-one]",0.132 µM,0.0478 µM,0.186 µM,0.176 µM,,,,
"CC(C)N1C(=O)Cc2cc(OCCN3CCC4(CC3)C(=O)Nc3ccc(C#N)cc34)ccc21 [Compound 144, 2-oxo-1′-(2-{[2-oxo-1-(propan-2-yl)-2,3-dihydro-1H-indol-5-yl]oxy}ethyl)-1,2-dihydrospiro[indole-3,4′-piperidine]-5-carbonitrile]",0.224 µM,0.101 µM,0.246 µM,0.358 µM,,,,
"N#Cc1ccc2c(c1)C1(CCN(CCOc3ccc4c(c3)CCNS4(=O)=O)CC1)C(=O)N2 [Compound 168, 1′-{2-[(1,1-dioxo-3,4-dihydro-2H-1λ^6,2-benzothiazin-6-yl)oxy]ethyl}-2-oxo-1,2-dihydrospiro[indole-3,4′-piperidine]-5-carbonitrile]",0.496 µM,0.191 µM,> 7.84 µM,0.638 µM,,,,
"CS(=O)(=O)C1(c2ccc(OCCN3CCC4(CC3)C(=O)Nc3ccc(Cl)cc34)cc2)CC2(COC2)C1 [Compound 182, 5-chloro-1′-[2-(4-{6-methanesulfonyl-2-oxaspiro[3.3]heptan-6-yl}phenoxy)ethyl]-1,2-dihydrospiro[indole-3,4′-piperidin]-2-one]",0.401 µM,0.138 µM,0.225 µM,0.481 µM,,,,
"CN1c2ccc(OCCN3CCC4(CC3)C(=O)Nc3ccc(C#N)cc34)cc2CCS1(=O)=O [Compound 104, 1′-{2-[(1-methyl-2,2-dioxo-3,4-dihydro-1H-2λ^6,1-benzothiazin-6-yl)oxy]ethyl}-2-oxo-1,2-dihydrospiro[indole-3,4′-piperidine]-5-carbonitrile]",0.583 µM,0.184 µM,0.356 µM,0.726 µM,,,,
"C[C@@H](COc1ccc(S(C)(=O)=O)cc1)N1CCC2(CC1)C(=O)Nc1ccccc12 (single isomer, unassigned) [Compound 12]",1.93 µM,0.494 µM,1.14 µM,1.95 µM,,,,
"CCS(=O)(=O)C1(c2ccc(OCCN3CCC4(CC3)C(=O)Nc3ccc(C#N)cc34)cc2)COC1 [Compound 174, 1′-(2-{4-[3-(ethanesulfonyl)oxetan-3-yl]phenoxy}ethyl)-2-oxo-1,2-dihydrospiro[indole-3,4′-piperidine]-5-carbonitrile]",0.401 µM,0.137 µM,0.253 µM,0.481 µM,,,,
"O=C1CCc2cc(OCCN3CCC4(CC3)C(=O)Nc3ccc(Cl)cc34)ccc2N1CC(F)F [Compound 106, 5-chloro-1′-(2-{[1-(2,2-difluoroethyl)-2-oxo-1,2,3,4-tetrahydroquinolin-6-yl]oxy}ethyl)-1,2-dihydrospiro[indole-3,4′-piperidin]-2-one]",0.069 µM,0.0234 µM,0.122 µM,0.0918 µM,,,,

# — US12344610B2, “APOL1 inhibitors and methods of use” (Maze Therapeutics, Inc., priority 2022, dated 2025)
